Patent US5340829A, “Immunoregulatory agents” (priority 1992, dated 1994)
“Also recorded” adds a separate entry of the source.

Legend:
aldose reductase = conditions: approximate molar concentration necessary for 50% inhibition of aldose reductase; cited from earlier work
[1] = system: delayed-type hypersensitivity (DTH); experiment: DTH ear swelling, comparison of sorbinil, tolrestat, WF-3681 and NSAIDs (Experiment 23, TABLE 5); assay type: in vivo, mice; conditions: for Effect on DTH as measured by ear swelling (in words): mouse, in vivo
Method: Delayed type hypersensitivity, which involves the participation of T lymphocytes and macrophages, can be studied in vivo by exposing (or priming) a mammal to a novel antigen and then reexposing (or challenging) the primed animal to the same antigen four to seven days later. The classic DTH response includes symptoms of inflammatory response, induration and erythema, which peak at 24 to 48 hours after challenging and then decline slowly.
Eight-week old female C57BL/6J mice (Jackson Labs) were divided into primed and unprimed groups. The five mice in the primed group were primed to 2,4-dinitrofluorobenzene (DNFB; Sigma Chemical Co., Grade 1, approx. 98%, Lot 129C-0065, No. d-6879) by painting their shaved ventral skins with 0.1 ml of 0.5% DNFB in ethanol:acetone (3:1). The five mice in the unprimed group were shaved and topically painted on their ventral skins with the ethanol:acetone (3:1) vehicle alone. The mice in both groups were challenged with DNFB four days later. A suitable patch of skin, the ear, was chosen for challenging. One ear was designated for challenging and the other to serve as a control. The thickness of each ear across the pinna was measured using micrometer calipers. The first measurements were taken four days after priming and are plotted as day 0 in FIG. 13. Next, each mouse was subjected to the following challenge regimen: one ear was challenged with one drop of 0.35% DNFB in olive oil, and the other (unchallenged control) ear was exposed to olive oil alone. The ear thicknesses (ET) of the challenged ear and the unchallenged ear were measured daily, and the swelling responses are plotted in FIG. 13 as: [formula]
Three groups of eight-week old female C57BL/6J mice were primed to DNFB as previously described. […] Six hours later the first sets of ear measurements were taken, and one ear of each mouse was challenged.
The Table has 4 columns, listing (left to right) each drug tested in column 1, drug concentrations in column 2, relative swelling in column 3, and effectiveness in column 4.

[2] = system: ear swelling produced by topical application of arachidonic acid; experiment: Ear swelling produced by topical arachidonic acid (Experiment 22); assay type: in vivo, mice; conditions: topical administration
[3] = system: Human polymorphonuclear leukocytes (PMNs); experiment: LTB4 release by polymorphonuclear leukocytes (Experiment 10); assay type: cell-based; conditions: normal human PMNs
Source text: Human polymorphonuclear leukocytes (PMNs) were used to study LTB4 release, which is known to be involved in inflammation.

[4] = system: Human polymorphonuclear leukocytes (PMNs); conditions: known from the art; cited from earlier work
[5] = system: ear swelling in response to PMA; conditions: general statement on NSAIDs; cited from earlier work
[6] = concentration 8.5 μM, 0 = no effect

CCC1(c2ccccc2)C(=O)NC(=O)NC1=O [Phenobarbital, phenobarbital]
IC50 (aldose reductase): ~1000 µM

CC(C)Cc1ccc(C(C)C(=O)O)cc1 (centres unmarked) [Ibuprofen, ibuprofen]
relative swelling (R) ([1]; concentration 8.5 μM): 1.0 | effectiveness (1 - R) (100%) [1, 6]: 0% | Effect on DTH as measured by ear swelling (in words) [1]: not effective in preventing DTH

C[C@@H]1O[C@@H](Oc2c(-c3ccc(O)c(O)c3)oc3cc(O)cc(O)c3c2=O)[C@H](O)[C@H](O)[C@H]1O [Quercitrin, quercitrin]
effectiveness (1 - R) (100%) ([1]; concentration 3 μM): 2% | relative swelling (R) ([1]; concentration 3 μM): 0.98 | Effect on DTH as measured by ear swelling (in words) [1]: not effective in preventing DTH

COc1ccc2c(c1)c(CC(=O)O)c(C)n2C(=O)c1ccc(Cl)cc1 [indomethacin]
Ear swelling produced by topical arachidonic acid [2]: completely inhibited

O=C(O)CCC1OC(=O)C(O)=C1c1ccccc1 (centres unmarked) [WF-3681, 3-(2,5-dihydro-4-hydroxy-5-oxo-3-phenyl-2-furyl)propionic acid]
Production of LTB4 [3]: no effect | effectiveness (1 - R) (100%) ([1]; concentration 2.125 μM): 4% | relative swelling (R) ([1]; concentration 2.125 μM): 0.96 | effectiveness (1 - R) (100%) ([1]; concentration 4.25 μM): 39% | relative swelling (R) ([1]; concentration 4.25 μM): 0.62 | relative swelling (R) ([1]; concentration 6 μM): 0.68 | Effect on DTH as measured by ear swelling (in words) [1]: strong and substantially identical inhibitory effect

O=c1c(O)c(-c2ccccc2)oc2ccccc12 [Hydroxyflavone, 3-hydroxyflavone]
IC50 (aldose reductase): ~1 µM

CC(=O)Nc1ccc(O)cc1 [Acetaminophen, acetaminophen]
relative swelling (R) ([1]; concentration 8.5 μM): 1.0 | effectiveness (1 - R) (100%) [1, 6]: 0% | Effect on DTH as measured by ear swelling (in words) [1]: not effective in preventing DTH

CC1=C(/C=C/C(C)=C/C=C/C(C)=C/C(=O)O)C(C)(C)CCC1 [retinoic acid]
LTB4 production (known) [4]: inhibit LTB4 production

CC(=O)Oc1ccccc1C(=O)O [Aspirin, acetylsalicylic acid]
relative swelling (R) ([1]; concentration 8.5 μM): 1.0 | effectiveness (1 - R) (100%) [1, 6]: 0% | Effect on DTH as measured by ear swelling (in words) [1]: not effective in preventing DTH; also recorded: failed to inhibit DTH | IC50 (aldose reductase): ~100 µM | LTB4 production (known) [4]: inhibit LTB4 production | Swelling of mouse ears in response to PMA (NSAIDs, stated in contrast) [5]: inhibit this response
